According to ChEMBL document CHEMBL5729331, “Small molecule activators of nicotinamide phosphoribosyltransferase (NAMPT) and uses thereof” (2022):

The molecules below were run against Nicotinamide phosphoribosyltransferase (Homo sapiens, UniProt P43490) (assay: Enzyme Assay and NMN Detection: NAMPT reaction was performed in 50 mM HEPES, pH 7.5, containing 5 mM MgCl2, 0.1% Prionex, 0.005% Tween 20, and 1 mM TCEP at room temperature in Greiner 384-well black polypropylene plates. […] Following 2 h incubation the reaction was stopped by addition 2.5 ul 20% acetophenone in dimethyl sulfoxide (DMSO) and 2.5 ul 2 MKOH. Plates were centrifuges and added with 10.5 ul 88% formic acid. […] The increased concentration of NMN was determined from a calibration curve obtained at the time of experiment.).
Nicotinamide phosphoribosyltransferase, sequence (P43490 whole entry): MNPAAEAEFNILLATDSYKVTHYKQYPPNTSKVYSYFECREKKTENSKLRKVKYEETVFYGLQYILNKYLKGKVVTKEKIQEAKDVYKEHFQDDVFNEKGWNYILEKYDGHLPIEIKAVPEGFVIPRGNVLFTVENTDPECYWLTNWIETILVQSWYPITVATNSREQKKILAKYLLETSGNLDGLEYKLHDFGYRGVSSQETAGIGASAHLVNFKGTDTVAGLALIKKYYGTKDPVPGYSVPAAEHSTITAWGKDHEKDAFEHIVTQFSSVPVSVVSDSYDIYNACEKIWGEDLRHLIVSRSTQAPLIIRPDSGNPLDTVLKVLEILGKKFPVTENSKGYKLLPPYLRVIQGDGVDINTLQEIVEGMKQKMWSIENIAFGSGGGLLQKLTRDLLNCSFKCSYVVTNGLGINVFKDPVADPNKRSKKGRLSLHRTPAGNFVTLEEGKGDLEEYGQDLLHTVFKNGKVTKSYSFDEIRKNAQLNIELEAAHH

Row | EC50 [µM] | Compound
1 | > 20 | CCOC(=O)c1ccc(NC(=O)NCc2ccncc2)nc1
2 | > 20 | CCOC(=O)c1ccc(NC(=O)NCc2ccncc2)cn1
3 | > 20 | NC(=O)c1ccc(NC(=O)NCc2ccncc2)nc1
